The record followed here is patent publication US3932664A, “Substituted phenoxyalkyl quaternary ammonium compounds as antiarrhythemic agents” (priority 1974, dated 1976).

In series [1] the test system is ouabain-induced ventricular tachycardia in dogs. Kind of series: conversion of ouabain-induced ventricular tachycardia to normal sinus rhythm in anesthetized dogs. In kind it is in vivo, dog. Particulars: for minimal effective dose: Canis lupus familiaris, iv, read-out: Conversion Dose. From the text:
Ventricular tachycardia is produced in dogs in a method similar to the method of Lucchesi and Hardman (J. Pharmacol. Exptl. Therap., 132, 372, 1961) by the administration of ouabain. In such operations, a dog is anesthetized by the intravenous administration of pentobarbital sodium at a dosage rate of 30 milligrams per kilogram. A femoral artery is cannulated with polyethylene tubing for measurements of blood pressure. A femoral vein is similarly cannulated for administration of ouabain and administration of the test compound. Hypodermic needle electrodes are employed for recording electrocardiograms. In such operations, ouabain is administered intravenously by infusion at a constant rate via the cannulated femoral vein. The infusion rate is 35 micrograms of ouabain per kilogram of animal body weight per hour. Within 1 to 1.5 hours following the start of the infusion, a ventricular tachycardia is seen to develop.
After ventricular tachycardia is observed, a test compound is administered intravenously by administration of varying amounts of a composition comprising 50 milligrams of the test compound as a sterile solution in 10 milliliters of water containing 0.9 percent sodium chloride. Each dose is administered slowly over a period of 15 to 30 seconds. The compound is administered at an initial dosage rate of 0.25 milligram of test compound per kilogram of animal body weight. Blood pressure and electrocardiogram are observed for 5 minutes after administration. When a complete conversion from the arrhythmic condition to normal sinus rhythm is not observed within the 5 minute period, a second dose of 0.50 milligram of the test compound per kilogram is administered by a similar procedure and blood pressure and heartbeat are similarly observed for 5 minutes. When complete conversion of the ventricular tachycardia to normal sinus rhythm is not observed, the dosage is increased two-fold every five minutes until complete conversion is obtained. The animal is then observed and the duration of the period of normal cardiac rhythm produced by administration of the test compound is recorded as the duration of antiarrhythmic activity. The termination of the period of normal activity is marked by the reappearance of ventricular tachycardia or fibrillation as indicated by the electrocardiogram observations. The antiarrhythmic dosage of test compound sufficient to bring about a complete conversion of the cuabain-induced tachycardia, and the duration of the period of normal cardiac activity are set out below.
The procedure of Example 26 is repeated, employing the compound of Example 1, [ 2-(4-amino-2,6-dibromophenoxy)-ethyl]-dimethyl(2-methylallyl)ammoniumchloride, as a test compound. In these operations two groups of three dogs each are administered the test compound intravenously at anti-arrhythmic dosage rates of 1 and 2 milligrams per kilogram after ectopic ventricular rhythms have been established by continuous infusion of cuabain.

Series [2] in a line: blood and heart tissue levels in mice after intravenous and oral administration. Particulars: mouse; for concentration at 0.5 h: oral 6 mg/kg, thirty minutes after administration. The format is in vivo. The protocol: [2-(4-amino-2,6-dibromophenoxy)ethyl]dimethyl-(allyl)ammonium bromide is administered to mice intravenously and orally. The animals are thereafter sacrificed and blood and heart tissue analyses are carried out to ascertain the concentration of test compound present. In such operations mice intravenously administered the test compound at a rate of 6 milligrams per kilogram are found to have blood levels of 27 micrograms of test compound per milliliter 10 seconds after injection, 2.1 micrograms per milliliter 3 minutes after injection. Analysis of heart tissue indicates a concentration of 5.5 micrograms of test compound per gram of tissue 10 minutes after injection. Similar analyses are carried out with animals administered 6 milligrams of test compound per kilogram orally. Thirty minutes after oral administration, blood and heart levels of 1.1 and 5.1 micrograms, respectively, of test compound per milliliter of blood or gram of heart tissue, respectively, are found.

Setting [3] is: dog, intravenous, dose giving complete conversion of ouabain-induced tachycardia to normal sinus rhythm.
The mark [4] stands for this setting: dog, intravenous, at conversion dose 1 mg/kg.
The mark [5] stands for this setting: dog, intravenous, at conversion dose 2 mg/kg.
Setting [6] is: dog, intravenous, at conversion dose 0.5 mg/kg.

Where two headings read alike, the source gives them in different places.

With `CCOC(=O)C[N+](C)(C)CCOc1c(Br)cc(N)cc1Br` [Example 2, [2-(4-amino-2,6-dibromophenoxy)ethyl]dimethyl(ethylcarboxymethyl) ammonium bromide], the minimal effective dose in series [1] (setting [3]) was 1 mg/kg. The “Duration (period of normal cardiac rhythm)” value (“Duration” for short) came out at 2.6 min in series [1] (setting [4]) and 3.5 min in series [1] (setting [5]).

`C[N+](C)(CCOc1c(Br)cc(N)cc1Br)Cc1ccccc1Cl.[Cl-]` [Example 3, [2-(4-amino-2,6-dibromophenoxy)-ethyl]dimethyl(2-chlorobenzyl)ammonium chloride]: in series [1] (setting [3]), the minimal effective dose was 1 mg/kg. The “Duration” value in series [1] (setting [4]) amounted to 12.5 min.

As for `C#CC[N+](C)(C)CCOc1c(Br)cc(N)cc1Br.[Br-]` [Example 4, [2-(4-amino-2,6-dibromo-phenoxy)ethyl]dimethyl(2-propynyl)ammonium bromide], the minimal effective dose in series [1] (setting [3]) is 0.5 mg/kg. Further, in series [1] (setting [6]), the “Duration” value was found to be 24 min.

Turning to `CC(=O)C[N+](C)(C)CCOc1c(Br)cc(N)cc1Br.[Cl-]` [Example 5, [2-(4-amino-2,6-dibromophenoxy)ethyl]dimethyl(acetonyl)ammonium chloride], the minimal effective dose in series [1] (setting [3]) came out at 1 mg/kg. Besides, in series [1] (setting [4]), the “Duration” value turned out to be 11 min.

With `C=CC[N+](C)(C)CCOc1c(Br)cc(N)cc1Br.[Br-]` [Example 6, [2-(4-amino-2,6-dibromophenoxy)ethyl]dimethyl(allyl)ammonium bromide], the minimal effective dose in series [1] (setting [3]) was determined as 1 mg/kg. Moreover, the “Duration” value in series [1] (setting [4]) amounted to 6 min. Also, the concentration at 10 s in series [2] (blood, intravenous 6 mg/kg, 10 seconds after injection, read-out: blood level) came to 27000 ng/mL. Further, the concentration at 0.05 h in series [2] (blood, intravenous 6 mg/kg, 3 minutes after injection, read-out: blood level) worked out at 2100 ng/mL. The concentration at 0.5 h in series [2] (blood, read-out: blood level) was 1100 ng/mL; in series [2] (heart, read-out: heart level) it was 5100 ng/g. In addition, the concentration at 10 min in series [2] (heart, intravenous 6 mg/kg, 10 minutes after injection) amounted to 5500 ng/g.

For `C[N+](C)(CCO)CCOc1c(Br)cc(N)cc1Br` [Example 7], the minimal effective dose in series [1] (setting [3]) turned out to be 1 mg/kg. For the same molecule, the “Duration” value in series [1] (setting [4]) was found to be 25 min.

Take `C[N+](C)(CCOc1c(Br)cc(N)cc1Br)CC(=O)c1ccc(Cl)c(Cl)c1` [Example 8]: the minimal effective dose in series [1] (setting [3]) worked out at 16 mg/kg. Also, the “Duration” value in series [1] (dog, intravenous, at conversion dose 16 mg/kg) was found to be 10 min.

In the case of `C[N+](C)(CCOc1c(Br)cc(N)cc1Br)CCc1ccccc1` [Example 9], the minimal effective dose in series [1] (setting [3]) is 2 mg/kg. In series [1] (setting [5]), the “Duration” value was found to be 3.5 min.

As to `C[N+](C)(CC=CCl)CCOc1c(Br)cc(N)cc1Br` [Example 10], the minimal effective dose in series [1] (setting [3]) amounted to 1 mg/kg. For the same molecule, the “Duration” value in series [1] (setting [4]) turned out to be 3 min.

Consider `C[N+](C)(CCOc1c(Br)cc(N)cc1Br)Cc1ccccc1` [Example 11], for which the minimal effective dose in series [1] (setting [3]) is 1 mg/kg. For the same molecule, the “Duration” value in series [1] (setting [4]) was determined as 8.5 min.

With `C[N+](C)(CCOc1c(Br)cc(N)cc1Br)Cc1ccc(Cl)cc1` [Example 12], the minimal effective dose in series [1] (setting [3]) was 1 mg/kg. For the same molecule, the “Duration” value in series [1] (setting [4]) was determined as 9.5 min.

With `C[N+](C)(CCOc1c(Br)cc(N)cc1Br)Cc1ccc(Cl)cc1Cl` [Example 13], in series [1] (setting [3]), the minimal effective dose stood at 0.5 mg/kg. Besides, the “Duration” value in series [1] (setting [6]) worked out at 4 min.

Turning to `C[N+](C)(CCOc1c(Br)cc(N)cc1Br)Cc1ccc(Cl)c(Cl)c1` [Example 14], the minimal effective dose in series [1] (setting [3]) is 2 mg/kg. Besides, the “Duration” value in series [1] (setting [5]) worked out at 14 min.

`C=C(C)C[N+](C)(C)CCOc1c(Cl)cc(N)cc1Cl.[Cl-]` [Example 15, [2-(4-amino-2,6-dichlorophenoxy)ethyl]dimethyl(2-methylallyl)-ammonium chloride]: the minimal effective dose in series [1] (setting [3]) worked out at 0.5 mg/kg. Moreover, the “Duration” value in series [1] (setting [6]) was found to be 4.5 min.

For the molecule `C=CC[N+](CC)(CC)CCOc1c(Br)cc(N)cc1Br.[Br-]` [Example 16, [2-(4-amino-2,6-dibromophenoxy)ethyl]diethyl(allyl)ammonium bromide], the minimal effective dose in series [1] (setting [3]) came to 2 mg/kg. In addition, the “Duration” value in series [1] (setting [5]) amounted to 6.5 min.

For the molecule `C=CC[N+](C)(C)CCCOc1c(Br)cc(N)cc1Br.[Br-]` [Example 17, [3-(4-amino-2,6-dibromophenoxy)propyl]dimethyl(allyl)ammonium bromide], the minimal effective dose in series [1] (setting [3]) worked out at 1 mg/kg. In addition, in series [1] (setting [4]), the “Duration” value was determined as 6 min.

As for `C[N+](C)(CC#N)CCOc1c(Br)cc(N)cc1Br.O=S(=O)([O-])c1ccccc1` [Example 18, [2-(4-amino-2,6-dibromophenoxy)ethyl]dimethyl(2-nitriloethyl)-ammonium benzenesulfonate], the minimal effective dose in series [1] was determined as 1 mg/kg. Further, in series [1] (setting [4]), the “Duration” value is 4 min.

On to `C=CC[N+](C)(C)CCOc1c(Br)cc(N)cc1Br.CS(=O)(=O)[O-]` [Example 19, [2-(4-amino-2,6-dibromophenoxy)-ethyl]dimethyl(allyl)ammonium methanesulfonate], for which the minimal effective dose in series [1] (setting [3]) was 1 mg/kg. Moreover, the “Duration” value in series [1] (setting [4]) was found to be 17.5 min; in series [1] (setting [5]), 39.0 min.

As for `Nc1cc(Br)c(OCC[N+]23CCC(CC2)CC3)c(Br)c1` [Example 20, [2-(4-amino-2,6-dibromophenoxy)ethyl] quinuclidinium bromide], the minimal effective dose in series [1] amounted to 0.5 mg/kg. Besides, the “Duration” value in series [1] (setting [6]) turned out to be 1 min.

For `Br.C=CC[N+]1(CCOc2c(Br)cc(N)cc2Br)CCCC1.[Br-]` [Example 21, 1-[2-(4-amino-2,6dibromophenoxy)ethyl]-1-allyl pyrrolidinium bromide hydrobromide], in series [1] (setting [3]), the minimal effective dose was 2 mg/kg. For the same molecule, the “Duration” value in series [1] (setting [5]) was 1.5 min.

With `Br.C=CC[N+]1(CCOc2c(Br)cc(N)cc2Br)CCCCC1.[Br-]` [Example 22, 1-[2-(4-amino-2,6-dibromophenoxy)ethyl]-1-allyl piperidinium bromide hydrobromide], the minimal effective dose in series [1] (setting [3]) was found to be 1 mg/kg. Further, in series [1] (setting [4]), the “Duration” value was 6.5 min.

Take `C=CC[N+]1(CCOc2c(Br)cc(N)cc2Br)CCCCCC1` [Example 23, [2-(4-amino-2,6-dibromophenoxy)ethyl]-1-allylhexahydroazepinium bromide]: in series [1] (setting [3]), the minimal effective dose came out at 0.5 mg/kg. The “Duration” value in series [1] (setting [6]) is 3.3 min; in series [1] (setting [4]), 7.5 min.

Regarding `Cc1ccc[n+](CCOc2c(Br)cc(N)cc2Br)c1.[Br-]` [Example 24, 1-[2-(4-amino-2,6-dibromo-phenoxy)ethyl]-3-picolinium bromide], the minimal effective dose in series [1] (setting [3]) was 0.5 mg/kg. In series [1] (setting [6]), the “Duration” value amounted to 38 min.

With `C=CC[N+](C)(C)CCCCOc1c(Br)cc(N)cc1Br.[Br-]` [Example 25, [4-(4-amino-2,6-dibromophenoxy)-butyl]dimethyl(allyl) ammonium bromide], the minimal effective dose in series [1] (setting [3]) came to 2 mg/kg. The “Duration” value in series [1] (setting [5]) turned out to be 26 min.
